Consider 14 molecules from ChEMBL document CHEMBL1165922, “Vitamin D receptor agonist/histone deacetylase inhibitor molecular hybrids” (Bioorg Med Chem, 2010).

Data set [1] concerns the target T1, Vitamin D3 receptor (Homo sapiens, UniProt P11473).
T1 sequence (P11473 whole entry): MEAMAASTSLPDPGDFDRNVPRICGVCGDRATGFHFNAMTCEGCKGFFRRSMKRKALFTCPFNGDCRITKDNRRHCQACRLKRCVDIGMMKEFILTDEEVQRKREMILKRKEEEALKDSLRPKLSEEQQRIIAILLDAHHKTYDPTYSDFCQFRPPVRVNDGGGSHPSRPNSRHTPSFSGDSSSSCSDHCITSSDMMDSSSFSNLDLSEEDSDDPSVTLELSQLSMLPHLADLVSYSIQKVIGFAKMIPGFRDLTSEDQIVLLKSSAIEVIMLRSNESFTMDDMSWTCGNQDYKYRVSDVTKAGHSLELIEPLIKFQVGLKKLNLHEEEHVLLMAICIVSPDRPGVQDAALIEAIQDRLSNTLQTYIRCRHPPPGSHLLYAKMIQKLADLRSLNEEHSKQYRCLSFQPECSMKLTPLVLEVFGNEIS
Description: Binding affinity to VDR ligand binding domain by fluorescence polarization competition assay

Data set [2] addresses T2, Protein deacetylase HDAC6 (Homo sapiens, UniProt Q9UBN7).
T2 sequence (Q9UBN7 whole entry): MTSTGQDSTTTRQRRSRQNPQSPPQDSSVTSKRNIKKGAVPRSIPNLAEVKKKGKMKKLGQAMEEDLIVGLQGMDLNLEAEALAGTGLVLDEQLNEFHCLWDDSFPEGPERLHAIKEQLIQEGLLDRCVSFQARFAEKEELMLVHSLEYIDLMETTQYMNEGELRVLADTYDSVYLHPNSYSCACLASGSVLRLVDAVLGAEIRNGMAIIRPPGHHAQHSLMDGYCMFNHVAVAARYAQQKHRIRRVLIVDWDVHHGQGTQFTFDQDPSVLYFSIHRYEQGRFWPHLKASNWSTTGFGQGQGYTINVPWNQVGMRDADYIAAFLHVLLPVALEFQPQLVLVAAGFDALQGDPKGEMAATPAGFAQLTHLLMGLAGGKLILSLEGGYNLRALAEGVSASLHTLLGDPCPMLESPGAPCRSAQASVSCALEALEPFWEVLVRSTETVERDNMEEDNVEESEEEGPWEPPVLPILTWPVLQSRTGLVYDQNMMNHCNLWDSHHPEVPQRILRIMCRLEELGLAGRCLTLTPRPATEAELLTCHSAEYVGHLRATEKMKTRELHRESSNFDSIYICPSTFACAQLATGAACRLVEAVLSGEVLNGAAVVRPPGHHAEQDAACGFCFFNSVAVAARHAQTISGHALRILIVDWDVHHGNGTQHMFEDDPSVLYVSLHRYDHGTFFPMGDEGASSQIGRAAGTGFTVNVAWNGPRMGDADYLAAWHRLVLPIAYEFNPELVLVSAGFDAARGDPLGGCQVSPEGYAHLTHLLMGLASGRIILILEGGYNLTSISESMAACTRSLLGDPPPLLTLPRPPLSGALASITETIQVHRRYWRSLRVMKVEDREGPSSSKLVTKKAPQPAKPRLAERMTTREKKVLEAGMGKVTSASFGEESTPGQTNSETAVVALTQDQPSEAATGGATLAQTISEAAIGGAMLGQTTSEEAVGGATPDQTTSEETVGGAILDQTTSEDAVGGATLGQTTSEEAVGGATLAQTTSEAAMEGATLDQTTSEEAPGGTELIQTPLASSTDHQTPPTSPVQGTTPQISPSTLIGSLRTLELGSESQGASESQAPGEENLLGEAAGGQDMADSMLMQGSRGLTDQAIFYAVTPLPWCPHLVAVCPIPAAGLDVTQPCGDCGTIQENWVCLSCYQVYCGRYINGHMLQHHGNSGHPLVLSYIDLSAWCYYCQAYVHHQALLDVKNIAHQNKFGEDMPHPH
Nature of the data set: Inhibition of HDAC6 after 10 mins by fluorometric assay.

Data set [3] deals with Mus musculus. Nature of the data set: Toxicity in FVB mouse assessed as calcium level in blood at 240 pmol/day administered via osmotic pump for 6 to 7 days measured on day 4 by microchemistry (RVb = 2.11 mmol/L). The format is organism-based. Conditions: in vivo, other.
The target of data set [4] is Histone deacetylase 3 (Homo sapiens, UniProt O15379). Nature of the data set: Inhibition of HDAC3 after 10 mins by fluorometric assay.
Sequence of Histone deacetylase 3 (O15379 whole entry): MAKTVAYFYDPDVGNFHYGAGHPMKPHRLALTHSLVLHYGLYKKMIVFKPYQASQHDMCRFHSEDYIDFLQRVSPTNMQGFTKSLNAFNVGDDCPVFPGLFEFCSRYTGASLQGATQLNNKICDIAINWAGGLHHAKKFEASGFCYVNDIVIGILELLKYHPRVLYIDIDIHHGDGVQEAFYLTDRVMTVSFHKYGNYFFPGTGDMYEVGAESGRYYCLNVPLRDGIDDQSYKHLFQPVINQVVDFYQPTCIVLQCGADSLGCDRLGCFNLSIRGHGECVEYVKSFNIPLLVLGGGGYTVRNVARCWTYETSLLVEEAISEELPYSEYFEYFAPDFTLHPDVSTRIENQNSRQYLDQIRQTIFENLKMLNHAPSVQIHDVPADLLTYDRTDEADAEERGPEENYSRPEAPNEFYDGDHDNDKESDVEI
The subject of data set [5] is Mus musculus. The data set is described as follows: Toxicity in FVB mouse assessed as calcium level in blood at 240 pmol/day administered via osmotic pump for 6 to 7 days measured on day 7 by microchemistry (RVb = […] mmol/L). Type of data set: organism-based. Conditions: in vivo, other.
In data set [6] the target is Histone deacetylase 2 (Homo sapiens, UniProt Q92769). The data set is described as follows: Inhibition of HDAC2 after 10 mins by fluorometric assay.
Sequence of Histone deacetylase 2 (Q92769 whole entry): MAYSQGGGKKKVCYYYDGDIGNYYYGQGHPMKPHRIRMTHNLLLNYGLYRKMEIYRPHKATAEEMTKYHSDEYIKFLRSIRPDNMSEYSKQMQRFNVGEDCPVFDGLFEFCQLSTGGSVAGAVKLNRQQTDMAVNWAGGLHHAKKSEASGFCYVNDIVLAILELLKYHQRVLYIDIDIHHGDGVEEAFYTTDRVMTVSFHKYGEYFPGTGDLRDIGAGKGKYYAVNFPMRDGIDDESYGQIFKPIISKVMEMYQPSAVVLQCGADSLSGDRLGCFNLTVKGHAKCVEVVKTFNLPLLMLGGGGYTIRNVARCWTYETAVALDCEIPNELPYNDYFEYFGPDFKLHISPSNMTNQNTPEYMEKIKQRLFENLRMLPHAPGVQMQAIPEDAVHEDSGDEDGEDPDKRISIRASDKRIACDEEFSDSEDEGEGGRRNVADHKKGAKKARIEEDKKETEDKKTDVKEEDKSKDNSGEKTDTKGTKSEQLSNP
Data set [7] deals with Mus musculus. The data set is described as follows: Toxicity in FVB mouse assessed as calcium level in blood at 1200 pmol/day administered via osmotic pump for 6 to 7 days measured on day 7 by microchemistry (RVb = […] mmol/L). The format is organism-based. Conditions: in vivo, other.
Data set [8] relates to Mus musculus. The data set is described as follows: Toxicity in FVB mouse assessed as calcium level in blood at 1200 pmol/day administered via osmotic pump for 6 to 7 days measured on day 4 by microchemistry (RVb = 2.11 mmol/L). Type of data set: organism-based. Conditions: in vivo, other.
Data set [9] has as its system AT84. Nature of the data set: Antiproliferative activity against mouse AT84 cells at 100 to 500 nM after 48 hrs by EdU incorporation assay. The format is functional, cell-based.
Data set [10] has as its system Mus musculus. The data set is described as follows: Toxicity in FVB mouse assessed as calcium level in blood at 1200 pmol/day administered via osmotic pump for 6 to 7 days measured on day 6 by microchemistry (RVb = 2 mmol/L). The format is organism-based. Conditions: in vivo, other.
Data set [11] concerns Mus musculus. Nature of the data set: Toxicity in FVB mouse assessed as calcium level in blood at 240 pmol/day administered via osmotic pump for 6 to 7 days measured on day 6 by microchemistry (RVb = 2 mmol/L). The format is organism-based. Conditions: in vivo, other.
The test system of data set [12] is Mus musculus. The data set is described as follows: Toxicity in FVB mouse assessed as calcium level in blood at 1200 pmol/day administered via osmotic pump for 6 to 7 days measured on day 3 by microchemistry (RVb = 2.24 mmol/L). Conditions: in vivo, other. The format is organism-based.
For data set [13], the system named is Mus musculus. The data set is described as follows: Toxicity in FVB mouse assessed as calcium level in blood at 240 pmol/day administered via osmotic pump for 6 to 7 days measured on day 3 by microchemistry (RVb = 2.24 mmol/L). Type of data set: organism-based. Conditions: in vivo, other.
Data set [14] can be described thus: Ratio of compound to calcitriol antiproliferative activity against mouse AT84 cells. The format is functional.

The structures appear in SMILES notation. Activity calls are given as the source filed them. The calls are words filed in the database; no cut-off is given here.

What is called IC50 is the midpoint of a concentration-inhibition curve. Low values mean inhibition by little substance, high ones a need for much substance. Turning to `C[C@H](CCCCC(=O)Nc1ccccc1N)[C@H]1CC[C@H]2/C(=C/C=C3C[C@@H](O)C[C@H](O)C3)CCC[C@]12C`, the IC50 in data set [1] worked out at 0.185 µM; in data set [2], 81.1 µM; in data set [4], 104 µM; in [6] it was 189 µM. Besides, the Activity is given as 1.97 mmol/L in data set [3], 1.8 mmol/L in [5], 2.09 mmol/L in data set [7] and 2.04 mmol/L in [8]. The outcome in [9] was Active.

As to `CCCCS(=O)(=O)NCCCC[C@@H](C)[C@H]1CC[C@H]2/C(=C/C=C3C[C@@H](O)C[C@H](O)C3)CCC[C@]12C`, the IC50 was determined as 0.029 µM in data set [1], 101 µM in [2] and 725 µM in data set [4]. For the same molecule, the Activity in [3] turned out to be 1.99 mmol/L; in [5], 2.05 mmol/L; in [7], 1.99 mmol/L; in data set [8] it was 2.12 mmol/L.

As to `CC(/C=C/C(=O)NO)=C\[C@@H](C)[C@H]1CC[C@H]2/C(=C/C=C3\C[C@@H](O)C[C@@H](O)C3)CCC[C@]12C` [TRICIFEROL], the IC50 in data set [1] amounted to 0.087 µM; in data set [2] it was 0.58 µM; in data set [4] it was 13.3 µM; in data set [6] it was 10.4 µM. For the same molecule, the Activity in [10] was found to be 2.08 mmol/L; in data set [11] it was 2.03 mmol/L; in [12], 1.92 mmol/L; in data set [13], 2.11 mmol/L.

In the case of `C[C@H](CCCCNS(=O)(=O)c1ccccc1)[C@H]1CC[C@H]2/C(=C/C=C3C[C@@H](O)C[C@H](O)C3)CCC[C@]12C`, the IC50 came to 0.015 µM in [1], 293 µM in data set [2] and 508 µM in data set [4]. In addition, the Activity turned out to be 2.05 mmol/L in [3], 1.95 mmol/L in [5], 2.07 mmol/L in [7] and 2.03 mmol/L in data set [8].

As for `C[C@H](CCCC(=O)NO)[C@H]1CC[C@H]2/C(=C/C=C3C[C@@H](O)C[C@H](O)C3)CCC[C@]12C`, the 50% inhibitory concentration (IC50) in data set [2] was found to be 9.3 µM; in [4], 3.2 µM.

For the molecule `C[C@H](CCCNS(C)(=O)=O)[C@H]1CC[C@H]2/C(=C/C=C3C[C@@H](O)C[C@H](O)C3)CCC[C@]12C`, the IC50 in [1] was determined as 0.213 µM; in [2], 71.3 µM; in data set [4], 730 µM.

For `C[C@H](CCCCNC(=O)CS)[C@H]1CC[C@H]2/C(=C/C=C3C[C@@H](O)C[C@H](O)C3)CCC[C@]12C`, the 50% inhibitory concentration (IC50) stood at 0.036 µM in data set [1], 1.75 µM in [2], 32.3 µM in [4] and 96.3 µM in data set [6]. Besides, the Activity in data set [3] worked out at 2.03 mmol/L; in [5], 2.02 mmol/L; in data set [7], 2.04 mmol/L; in data set [8], 2 mmol/L. Moreover, in data set [9], the result was Active.

Take `C[C@H](CCCCC(=O)NO)[C@H]1CC[C@H]2/C(=C/C=C3C[C@@H](O)C[C@H](O)C3)CCC[C@]12C`: in data set [14], the Ratio amounted to 20. In addition, the IC50 was 0.248 µM in data set [1], 3 µM in [2], 14.5 µM in [4] and 16.5 µM in data set [6]. Besides, the Activity in data set [10] worked out at 2.26 mmol/L; in data set [11], 1.93 mmol/L; in data set [12], 2.03 mmol/L; in data set [13], 1.93 mmol/L. Also, in data set [9], the outcome was Active.

With `C[C@H](CCCCNS(C)(=O)=O)[C@H]1CC[C@H]2/C(=C/C=C3C[C@@H](O)C[C@H](O)C3)CCC[C@]12C`, the IC50 in [1] amounted to 0.321 µM; in data set [2] it was 191 µM; in data set [4] it was 718 µM. Further, the Activity in data set [10] was 1.92 mmol/L; in data set [11] it was 2.22 mmol/L; in data set [12] it was 2.01 mmol/L; in [13] it was 1.88 mmol/L.

On to `C[C@H](CCCCNS(=O)(=O)C(F)(F)F)[C@H]1CC[C@H]2/C(=C/C=C3C[C@@H](O)C[C@H](O)C3)CCC[C@]12C`, for which the half-inhibitory concentration (IC50) in [1] came to 0.014 µM; in data set [2], 153 µM; in data set [4], 695 µM.

`C[C@H](CCCC(=O)Nc1ccccc1N)[C@H]1CC[C@H]2/C(=C/C=C3C[C@@H](O)C[C@H](O)C3)CCC[C@]12C`: the half-inhibitory concentration (IC50) in [1] came out at 0.524 µM; in data set [2], 330 µM; in [4] it was 460 µM. The Activity is 2.14 mmol/L in [10], 2.05 mmol/L in [11], 2.07 mmol/L in data set [12] and 1.89 mmol/L in data set [13].

With `C[C@H](CCCCCNS(N)(=O)=O)[C@H]1CC[C@H]2/C(=C/C=C3C[C@@H](O)C[C@H](O)C3)CCC[C@]12C`, the IC50 in [1] was 0.196 µM; in data set [2] it was 31.6 µM; in data set [4] it was 605 µM.

`CNC(=O)C(=O)CCCC[C@@H](C)[C@H]1CC[C@H]2/C(=C/C=C3C[C@@H](O)C[C@H](O)C3)CCC[C@]12C`: the IC50 in [2] was 64 µM; in data set [4] it was 36 µM; in [6], 90.4 µM. Further, in [9], the outcome was Active.

As to `C[C@H](CCCCNS(N)(=O)=O)[C@H]1CC[C@H]2/C(=C/C=C3C[C@@H](O)C[C@H](O)C3)CCC[C@]12C`, the IC50 was found to be 0.28 µM in [1], 50.4 µM in [2] and 470 µM in data set [4].
